What was measured:
[1] = test system: HUVEC; assay: Cytotoxicity against HUVECs assessed as growth inhibition by MTT assay; type: cell-based; conditions: Homo sapiens
[2] = test system: A549; assay: Cytotoxicity against Homo sapiens (human) A549 cells assessed as growth inhibition by MTT assay; type: functional, cell-based
[3] = test system: MDA-MB-231; assay: Cytotoxicity against Homo sapiens (human) MDA-MB-231 cells assessed as growth inhibition by MTT assay; type: functional, cell-based
[4] = test system: A549; assay: Ratio of LK-B030 IC50 to compound IC50 for Homo sapiens (human) A549 cells; type: functional
[5] = test system: MDA-MB-231; assay: Ratio of LK-B030 IC50 to compound IC50 for Homo sapiens (human) MDA-MB-231 cells; type: functional
[6] = test system: K562; assay: Ratio of sunitinib IC50 to compound IC50 for Homo sapiens (human) K562 cells; type: functional
[7] = test system: HL-60; assay: Ratio of sunitinib IC50 to compound IC50 for Homo sapiens (human) HL60 cells; type: functional
[8] = test system: A549; assay: Ratio of sunitinib IC50 to compound IC50 for Homo sapiens (human) A549 cells; type: functional
[9] = test system: MDA-MB-231; assay: Ratio of sunitinib IC50 to compound IC50 for Homo sapiens (human) MDA-MB-231 cells; type: functional
[10] = test system: HUVEC; assay: Cytotoxicity against VEGF-stimulated HUVECs assessed as growth inhibition by MTT assay; type: functional, cell-based; conditions: Homo sapiens
[11] = test system: HUVEC; assay: Cytotoxicity against recombinant Homo sapiens (human) basic FGF-stimulated HUVECs assessed as growth inhibition by MTT assay; type: functional, cell-based
[12] = test system: IM-9; assay: Cytotoxicity against Homo sapiens (human) IM9 cells assessed as growth inhibition by MTT assay; type: functional, cell-based
[13] = test system: K562; assay: Cytotoxicity against Homo sapiens (human) K562 cells assessed as growth inhibition by MTT assay; type: functional, cell-based
[14] = test system: HL-60; assay: Cytotoxicity against Homo sapiens (human) HL60 cells assessed as growth inhibition by MTT assay; type: functional, cell-based

Q: Which IC50 [1] does the source give for `CCN(CC)CCNC(=O)c1c(C)[nH]c(/C=C2\C(=O)N(CCCN(C)C)c3ccc(Cl)cc32)c1C` here?
A: Its IC50 is 5.57 µM.

Q: With `CCOC(=O)c1c(C)[nH]c(/C=C2\C(=O)N(CCCN(C)C)c3ccc(Cl)cc32)c1C.Cl` as the compound, how does the IC50 [2] read?
A: Its IC50 is 1.1 µM.

Q: And the IC50 [3]?
A: The IC50 was 1.47 µM.

Q: What about the “Ratio IC50” value [4] of the same compound?
A: The value was 1.6.

Q: What about the “Ratio IC50” value [5] of the same compound?
A: The value was 1.6.

Q: And the “Ratio IC50” value [6]?
A: The value was 1.8.

Q: And the “Ratio IC50” value [7]?
A: The value was 1.8.

Q: What about the “Ratio IC50” value [8] of the same compound?
A: Its value is 1.8.

Q: What about the “Ratio IC50” value [9] of the same compound?
A: Its value is 1.8.

Q: What about the IC50 [10] of the same compound?
A: The IC50 was 9.66 µM.

Q: And the IC50 [11]?
A: The IC50 was 10.2 µM.

Q: What about the IC50 [1] of the same compound?
A: Its IC50 is 22 µM.

Q: And the IC50 [12]?
A: Its IC50 is 2.95 µM.

Q: What about the IC50 [13] of the same compound?
A: The IC50 was 1.36 µM.

Q: And the IC50 [14]?
A: Its IC50 is 1.17 µM.

Q: `Cc1[nH]c(/C=C2\C(=O)N(CCCN(C)C)c3ccc(Cl)cc32)c(C)c1C(=O)N1CCOCC1` was tested. Which IC50 [2] did it give?
A: Its IC50 is 8.6 µM.

Q: And the IC50 [3]?
A: Its IC50 is 9.69 µM.

Q: And the IC50 [10]?
A: Its IC50 is 4.21 µM.

Q: And the IC50 [11]?
A: Its IC50 is 10.7 µM.

Q: And the IC50 [1]?
A: The IC50 was 14.2 µM.

Q: What about the IC50 [12] of the same compound?
A: Its IC50 is 7.65 µM.

Q: What about the IC50 [13] of the same compound?
A: The IC50 was 5.46 µM.

Q: What about the IC50 [14] of the same compound?
A: The IC50 was 4.64 µM.

Q: For `C/C(=C1/C(=O)N(CCCN(C)C)c2ccc(F)cc21)c1ccc[nH]1`, which IC50 [2] is on record?
A: The IC50 was 8.27 µM.

Q: And the IC50 [3]?
A: The IC50 was 5.92 µM.

Q: What about the IC50 [10] of the same compound?
A: Its IC50 is 9.71 µM.

Q: And the IC50 [11]?
A: Its IC50 is 8.83 µM.

Q: What about the IC50 [1] of the same compound?
A: Its IC50 is 13.9 µM.

Q: What about the IC50 [12] of the same compound?
A: The IC50 was 6.68 µM.

Q: And the IC50 [13]?
A: The IC50 was 6.41 µM.

Q: And the IC50 [14]?
A: The IC50 was 7.99 µM.

Q: For `CC/C(=C1/C(=O)N(CCCN(C)C)c2ccc(F)cc21)c1ccc[nH]1`, which IC50 [2] is on record?
A: The IC50 was 16.9 µM.

Q: And the IC50 [3]?
A: Its IC50 is 10.6 µM.

Q: What about the IC50 [10] of the same compound?
A: The IC50 was 9.57 µM.

Q: And the IC50 [11]?
A: Its IC50 is 9.75 µM.

Q: And the IC50 [1]?
A: Its IC50 is 22.2 µM.

Q: And the IC50 [12]?
A: The IC50 was 11 µM.

Q: What about the IC50 [13] of the same compound?
A: The IC50 was 8.82 µM.

Q: What about the IC50 [14] of the same compound?
A: The IC50 was 10.3 µM.

Q: For `CN(C)CCCN1C(=O)/C(=C(/c2ccccc2)c2ccc[nH]2)c2cc(F)ccc21`, which IC50 [2] is on record?
A: The IC50 was 11.4 µM.

Q: And the IC50 [3]?
A: The IC50 was 6.92 µM.

Q: What about the IC50 [10] of the same compound?
A: The IC50 was 9.52 µM.

Q: What about the IC50 [11] of the same compound?
A: The IC50 was 8.83 µM.

Q: What about the IC50 [1] of the same compound?
A: Its IC50 is 42.8 µM.

Q: What about the IC50 [12] of the same compound?
A: The IC50 was 5.64 µM.

Q: What about the IC50 [13] of the same compound?
A: The IC50 was 6.43 µM.

Q: And the IC50 [14]?
A: Its IC50 is 7.16 µM.

Q: `CN(C)CCCN1C(=O)C(=C(c2ccccc2)c2ccccc2)c2cc(F)ccc21` was tested. Which IC50 [2] did it give?
A: The IC50 was 13.4 µM.

Q: And the IC50 [3]?
A: Its IC50 is 6.61 µM.

Q: What about the IC50 [10] of the same compound?
A: Its IC50 is 8.42 µM.

Q: And the IC50 [11]?
A: Its IC50 is 10.9 µM.

Q: What about the IC50 [1] of the same compound?
A: Its IC50 is 32.8 µM.

Q: And the IC50 [12]?
A: Its IC50 is 9.38 µM.

Q: What about the IC50 [13] of the same compound?
A: The IC50 was 6.85 µM.

Q: What about the IC50 [14] of the same compound?
A: The IC50 was 10.1 µM.

Q: How did the IC50 [2] turn out when `CCOC(=O)c1c(C)[nH]c(/C=C2\C(=O)N(CCCN(C)C)c3ccc(F)cc32)c1C` was run?
A: Its IC50 is 1.55 µM.

Q: What about the IC50 [3] of the same compound?
A: The IC50 was 3.86 µM.

Q: What about the IC50 [10] of the same compound?
A: The IC50 was 10.1 µM.

Q: What about the IC50 [11] of the same compound?
A: The IC50 was 1.81 µM.

Q: And the IC50 [1]?
A: Its IC50 is 8.56 µM.

Q: And the IC50 [12]?
A: Its IC50 is 3.21 µM.

Q: And the IC50 [13]?
A: Its IC50 is 1.54 µM.

Q: What about the IC50 [14] of the same compound?
A: Its IC50 is 1.36 µM.

Q: With `Cc1[nH]c(/C=C2\C(=O)N(CCCN(C)C)c3ccc(F)cc32)c(C)c1C(=O)N1CCOCC1` as the compound, how does the IC50 [2] read?
A: The IC50 was 21.7 µM.

Q: What about the IC50 [3] of the same compound?
A: The IC50 was 14.7 µM.

Q: What about the IC50 [10] of the same compound?
A: The IC50 was 9.11 µM.

Q: And the IC50 [11]?
A: Its IC50 is 22 µM.

Q: And the IC50 [1]?
A: The IC50 was 29.4 µM.

Q: And the IC50 [12]?
A: The IC50 was 61.5 µM.

Q: What about the IC50 [13] of the same compound?
A: Its IC50 is 57 µM.

Q: And the IC50 [14]?
A: The IC50 was 13.2 µM.

Q: For `CCN(CC)CCNC(=O)c1c(C)[nH]c(/C=C2\C(=O)Nc3ccc(F)cc32)c1C` [SUNITINIB], which IC50 [1] is on record?
A: Its IC50 is 3.9 µM.
